Where two headings read alike, the source gives them in different places.
How the values were obtained:
[1] = test system: microglia and astrocytes in ventral horn of SOD1^G93A mice; test: Glial reactivity in SOD1G93A mice (Iba1, GFAP); type: in vivo, SOD1^G93A male mice; details: 5 mg/kg i.p.; 16 weeks of age
Protocol: (§1) The compounds were dissolved in 0.5% hydroxypropyl-methylcellulose (HPMC; H7509, Sigma-Aldrich) in distilled water and were administered by intraperitoneal (i.p.) route twice daily (bid) in a volume of 10 mL/kg. Administrations were given from 30 min after rhizotomy surgery until 42 days post-injury (dpi), the end of the study; in the SOD1^G93A study, treatments were given from 8 to 16 weeks of age (see Figure 6).
For glial cells immunofluorescence, other lumbar spinal cord sections were blocked with 10% normal donkey serum and incubated overnight with primary antibodies rabbit anti-Iba1 (1:500; 019–19741, Wako) and rat anti-GFAP (1:500; 13-0300, Invitrogen) to label microglia and astroglia, respectively. After several washes, sections were incubated with secondary antibodies Alexa Fluor 488-donkey anti-rat (1:500; A-21208, Invitrogen) or Alexa Fluor 594 donkey anti-rabbit (1:500; A21207, Invitrogen). Finally, sides were mounted with Fluoromount-G. To quantify glial cell reactivity, images of the ventral horn were acquired with an epifluorescence microscope (Nikon Eclipse Ni, Japan) using the same conditions for each analyzed marker. After defining a threshold for background correction, the integrated density of GFAP or Iba1 labeling was measured using ImageJ software.

[2] = Tolerability of chronic administration in rhizotomy mice; type: in vivo; details: twice daily i.p. for 6 weeks, 0.5 and 5 mg/kg
Protocol: as §1

[3] = test system: Sig-1R/BiP interaction; test: BiP/Sig-1R association assay in CHO cells; type: cell-based; details: for Effect on association between Sig-1R and BiP, compound alone: 30 µM; for Effect on Sig-1R/BiP interaction (concentration-response): CHO cells, 37 °C 30 min, co-IP/ELISA; for Functional profile for Sig-1R: based on BiP/Sig-1R association assay
Protocol: The interaction between Sig-1R and the chaperone BiP was used to identify the functional nature (agonistic or antagonistic) of compounds [38]. The assay was conducted by Amylgen according to their standard assay protocol (https://www.amylgen.fr/ (accessed on 15 May 2022)). Each assay condition consisted of six determinations. In brief, CHO cells were treated with compounds at 37 °C for 30 min and lysed. CHO cell lysates were immunoprecipitated with Sig-1R antibody, and coimmunoprecipitated BiP was detected by ELISA assay. In each experiment, untreated control cell lysates were used to assess the maximal level of Sig1R-BiP interaction and represented 100% of Sig1R-BiP association. Cells treated with compounds at the corresponding concentrations were equally processed, and the level of Sig1R-BiP association in those conditions was referred to as the control condition. In this experimental setting, Sig1R agonists were able to reduce the Sig1R-BiP interaction, while antagonists were not.

[4] = test system: NMJs of hindlimb muscle in SOD1^G93A mice; test: Neuromuscular junction innervation in SOD1G93A mice; type: in vivo, SOD1^G93A male mice; details: 5 mg/kg i.p.; 16 weeks of age
Protocol: as §1
For neuromuscular junction (NMJ) labeling, 50 µm thick longitudinal sections of TA muscle were serially cut. Sections were blocked with 5% normal donkey serum and incubated with primary antibodies rabbit anti-synaptophysin (1:500; Ab32127, Abcam, Cambridge, UK) and chicken anti-neurofilament 200 (NF200, 1:1000; AB5539, Millipore, Burlington, MS, USA) 48 h at 4 °C. After washes, sections were incubated overnight with secondary antibody Alexa Fluor 594-donkey anti-rabbit and anti-chicken (1:200; A11042-A21207, Invitrogen, USA) and Alexa 488 conjugated α-bungarotoxin (1:500; B13422, Life Technologies, Carlsbad, CA USA). Confocal images were captured (LSM 700 Axio Observer, Carl Zeiss, Jena, Germany, 40xOil/z0.5), and the maximum projection images generated from 1.3 µm z projections. The proportion of innervated NMJs was calculated by classifying each endplate as occupied (when presynaptic terminals overlie the endplate) or vacant (no presynaptic label in contact with the endplate). At least 60 endplates were analyzed per muscle.

[5] = test system: SMI-32-positive MNs in spinal cord organotypic cultures; test: Spinal cord organotypic cultures (SCOC) under chronic excitotoxicity (THA); type: cell-based, Sprague–Dawley rats; details: THA 100 µM, 28 DIV; tested at 0.03, 0.3, 3, 30 µM
Protocol: SCOCs from lumbar sections of 8-day-old Sprague–Dawley rats were prepared as previously described [39]. Briefly, the spinal cord was collected and cut into 350 μm thick transverse sections with a McIlwain Tissue Chopper. Four lumbar sections were transferred onto Millicell-CM nets (0.4 μm, PICM03050, Millipore) in medium (50% (v/v) minimal essential medium (MEM, M5775, Sigma), 2 mM glutamine, 25 mM HEPES, 25% (v/v) Hank’s Balanced Salt Solution (HBSS^−/−;14175, Gibco; UK) supplemented with 25.6 mg/mL glucose, and 25% (v/v) heat-inactivated horse serum (26050-088, Gibco; New Zealand), pH = 7.2). Cultures were maintained at 37 °C in a 5% CO2 humidified cabin and left to stabilize. After 7 days in vitro (DIV), DL-threo-β-hydroxyaspartic acid (THA; 100 μM: H2775, Sigma Aldrich, St. Louis, MI, USA) was added to induce chronic excitotoxicity [28]. […] In vitro experiments were performed in three independent cultures, with at least 12 different SCOCs for each experimental condition.
Slices were maintained for 28 DIV and then fixed with 4% PFA. […] MN survival was assessed by counting all SMI-32-positive neurons in each spinal cord using the Cell Counter plugin of ImageJ software.

[6] = test system: spinal MNs after L4-L5 rhizotomy; test: MN survival after L4-L5 rhizotomy (cresyl violet MN counts); type: in vivo, female mice (B6SJL)
Protocol: Surgeries were performed on three-month-old mice under anesthesia with ketamine-xylazine (100–10 mg/kg i.p.) as previously described. Briefly, the L4-L5 spinal roots were exposed by a small laminectomy on the right side. Afterwards, roots were cut at the exit from the intervertebral foramina, and the root stumps were separated. Mice were cared for until recovery in a warm environment. Analgesia was provided with buprenorphine (0.1 mg/kg) for the next 48 h post-surgery.
as §1
At the end of follow-up (42 dpi for rhizotomy and 16 weeks of age for ALS mice; Figure 6), the animals were deeply anesthetized and transcardially perfused with 4% PFA in PBS. The lumbar spinal cord and the TA muscle were harvested and cryopreserved in 30% sucrose solution in PB. The spinal cords were serially cut in 20 µm thick transverse sections with a cryostat (Leica, Mannheim, Germany). For MN counting, L4-L5 spinal cord sections separated 100 µm were stained for 3 h with an acidified solution of 3.1 mM cresyl violet. MNs were identified by their localization in the lateral ventral horn of the spinal cord and were counted following strict size and morphological criteria: only MNs with a diameter larger than 20 µm, polygonal shape, and prominent nucleoli were counted.

[7] = Plasma levels, spinal nerve injury (rhizotomy) model; type: in vivo, female mouse; details: ip
Protocol: as §1
Plasma levels were determined in the two in vivo models evaluated to be able to associate the pharmacological activity with the levels present in plasma. […] In the SOD1^G93A model, the plasma levels were evaluated at 16 weeks of age (after 8 weeks of administration) and 15 min after compound administration (5 mg/kg i.p.). Plasma samples were assayed by ultraperformance liquid chromatography−triple quadrupole mass spectrometry (UPLC-MS/MS) after plasma protein precipitation. Results are expressed as mean ± standard deviation (n = 8).

[8] = 0.5 mg/kg bid i.p., 42 dpi, not significant
[9] = 5 mg/kg/bid i.p. 6 weeks, 42 days after injury, untreated injured 6.8 ± 0.3

In the case of `C[C@@H]1OC2(CCN(Cc3ccc(F)cc3)CC2)CN(C)C1=O` [EST79232], the “Astrocyte activation (GFAP)” value [1] is reported as “significant decrease in astrocyte activation”, the “Microglial activation (Iba1)” value [1] is reported as “did not reduce microglial activation” and the “Toxicity of chronic administration (behavior, body weight)” value [2] is reported as “did not cause overt toxicity in the animals”. The “Effect on association between Sig-1R and BiP, compound alone” value [3] was “able to reduce the association between Sig-1R and BiP”, the “Effect on Sig-1R/BiP interaction (concentration-response)” value [3] was “concentration-dependent dissociation of Sig-1R from BiP” and the “Functional profile for Sig-1R” value [3] was “agonist”. The “Proportion of innervated endplates (NMJ) vs vehicle” value [4] was “tendency to preserve NMJ innervation, although differences did not reach statistical significance”, the “Number of SMI-32-positive MNs vs THA condition” value [5] was “significantly more SMI-32-positive neurons at three concentrations tested” and the “Number of spinal MNs ± SEM, ipsilateral ventral horn” value (shortened to “Number of spinal MNs ± SEM”) [6, 8] was 7.6 ± 0.9. For the same molecule, the “Number of spinal MNs ± SEM” value [6, 9] was 8.6 ± 0.6, the concentration at 15 min ([7]; plasma, rhizotomy female mouse, 0.5 mg/kg i.p. bid, day 42, read-out: Plasma Concentration 15 min Post-Administration, Mean) was 20 ng/mL and the concentration at 15 min ([7]; plasma, rhizotomy female mouse, 5 mg/kg i.p. bid, day 42, read-out: Plasma Concentration 15 min Post-Administration, Mean) was 265 ng/mL.
With `CCN1CC2(CCN(Cc3ccc(C#N)c(F)c3)CC2)O[C@@H](C)C1=O` [EST79376] the “Astrocyte activation (GFAP)” value [1] was “significant decrease in astrocyte activation”, the “Microglial activation (Iba1)” value [1] was “did not reduce microglial activation” and the “Toxicity of chronic administration (behavior, body weight)” value [2] was “did not cause overt toxicity in the animals”. The “Effect on association between Sig-1R and BiP, compound alone” value [3] was “had no effect on its own”, the “Effect on Sig-1R/BiP interaction (concentration-response)” value [3] was “did not produce any change in the interaction between the two proteins” and the “Functional profile for Sig-1R” value [3] was “antagonist”. The “Reversion of the effect of PRE-084 on Sig-1R/BiP association” value ([3]; compound 30 µM, PRE-084 10 µM) was “able to revert the effect of PRE-084”, the “Proportion of innervated endplates (NMJ) vs vehicle” value [4] was “tendency to preserve NMJ innervation, although differences did not reach statistical significance” and the “Number of SMI-32-positive MNs vs THA condition” value [5] was “significantly preserved MNs”. For the same molecule, the “Number of spinal MNs ± SEM” value [6, 8] was 7.4 ± 0.7, the “Number of spinal MNs ± SEM” value [6, 9] was 8.7 ± 0.5 and the concentration at 15 min ([7]; female, mouse, in vivo, 0.5 mg/kg) was 21 ng/mL. It also gave a concentration at 15 min ([7]; female, mouse, in vivo, 5 mg/kg) of 592 ng/mL.

Reference: paper PMC9223397 (International Journal of Molecular Sciences, 2022)
